Experimental data published in US9730906B2, “α-derivatives of cis-monounsaturated fatty acids for use as medicines” (UNIVERSITAT DE LES ILLES BALEARS, priority 2008, dated 2017).
Where two headings read alike, the source gives them in different places.

Legend:
[1] = system: A549 cells of human lung adenocarcinoma; assay: Prevention of tumour development in nude mice injected with A549 cells; format: in vivo; settings: 400 mg/kg per day oral, 2 weeks before and one month after A549 injection, compared with fatty acids not of Formula I, p<0.05
Source text: FIG. 2. Preventative effect of various fatty acids against tumour development. […] Animals received treatment before injection of tumour cells and the treatment was subsequently maintained. Animals of the control group were not treated and the volume of their tumours was taken as the reference value (100%).
To determine whether the fatty acids of the invention have applications in the prevention of the development of tumour processes, an animal cancer model was used. This model consisted of immune-deprived animals ([Crl:Nu(Ico)-Fox 1] nude mice in which non-microcytic human lung cancer cells were injected (5×10^6 A549 cells per animal). The control group (infected with cancer cells but untreated) started to develop tumours that were visible after a few days. The sizes of the tumours were measured for the first time at 10 days after implanting the tumour and measurements continued for up to 31 days after the implantation with a digital calliper. The volume of the tumours was calculated with the following equation: v=w^2×l/2 where v is the volume of the tumour, w is its width and l is the length. Preventative treatments against development of the cancer were applied. To carry out these treatments, 400 mg/kg were administered per day for 2 weeks before the injection of tumour cells. This treatment was continued for one month after the implantation of the tumour cells and the volume of the tumours in the animals was measured. Each experimental group was composed of 8 animals. Oral administration of α-derivatives of cis-monounsaturated fatty acids prevented cancer development (A549 cells of human lung adenocarcinoma) (FIG. 2). […] Therefore it was concluded that the introduction of a double bond in the cis configuration in the structure of the fatty acid is a critical factor in the prevention and treatment by fatty acids of cancer development.

[2] = biological target: T1, cyclooxygenases-1 (COX-1) (Homo sapiens, UniProt P23219); assay: COX-1 activity in U937 differentiated monocytes (Cayman COX-1 inhibitor screening system); format: cell-based; settings: 250 μM, 6 hours; compared with fatty acids not of Formula I, p<0.05
T1 construct: endogenous in cells; host or cells: U937 differentiated monocytes
Method: FIG. 19A. Effect of various fatty acids in the inhibition of the activity of cyclooxygenases-1 (COX-1) (Cayman COX-1 inhibitor screening system). […] Cell cultures (U937 differentiated monocytes) were treated with the fatty acids of the invention (250 μM, 6 hours).
(§1) In an additional study on the release of various proinflammatory cytokines (IL-1b, IL-6, IL-8, IL-10) and TNF-α in U937 monocytes stimulated with bacterial lipopolysaccharide (LPS), a marked reduction in the levels of these molecules was observed after treatments with OHHD at a concentration of 250 μM and 72 h incubation (Table 4). The effect of the α-derivatives of cis-monounsaturated fatty acids (250 μM, 6 h) on the activity and expression of the COX-1 and COX-2 cyclooxygenases was investigated in the same system.

[3] = system: cyclooxygenase-2 (COX-2); assay: Cellular concentration of COX-2 in U937 differentiated monocytes (immunoblot); format: cell-based, human; settings: 250 μM, 6 hours; compared with fatty acids not of Formula I, p<0.05
Method: FIG. 19B. Effect of various fatty acids in the inhibition (concentration of protein) of cyclooxygenase-2 (immunoblot of COX-2). […] Cell cultures (U937 differentiated monocytes) were treated with the fatty acids of the invention (250 μM, 6 hours).
as §1

[4] = Rat obesity induced by cafeteria diet, preventative pre-treatment (Table 3); format: in vivo, Wistar Kyoto rats; settings: 300 mg/kg oral, after two weeks on cafeteria diet; obese control 308 ± 17, lean control 280 ± 16; * lower than obese controls, ‡ indistinguishable
Method: (§2) In a further experiment, the effect of various molecules at a single dose (600 mg/kg) was investigated. […] In this sense, modification on the α-carbon and the double bond in cis configuration are crucial elements for producing the therapeutic effect indicated above. […] Finally, the effect of α-derivatives of cis-monounsaturated fatty acids on the prevention of obesity was investigated. For this, a model of rat obesity induced by a cafeteria diet, where the hypercaloric food increases the weight of the animals very markedly, was used. There were various experimental groups (see Table 3), each of which consisted of 6 female Wistar Kyoto rats of 250-300 g in weight. All the animals received a standard diet for 2 weeks. In addition, 2 of the groups received an oral preventative pre-treatment of vehicle and the other groups received 300 mg/kg of the fatty acids indicated below. Afterwards, one of the control groups was maintained on a standard diet (lean control) and the other was fed on a cafeteria diet (obese control). The treated animal groups were fed on the cafeteria diet. Preventative pre-treatment was maintained for all the groups. After two weeks on these diets, the lean control group had increased their body weight by an average of 16±16 g, while the obese control group had increased their body weight by an average of 43±17 g (statistically significance difference, p<0.01).
(§3) The weight of treated animals was statistically less than the weight of obese control rats and statistically indistinguishable from that of lean control rats.

[5] = system: hypertensive rats; assay: Arterial pressure in hypertensive rats after 8-day treatment (Table 5); format: in vivo, rat
[6] = system: SF767 human tumour cells; assay: Growth of SF767 tumour cells in culture; format: cell-based
Method: In a second experimental series, designed to discover whether these molecules are effective in treatment of different types of tumours, the effect of OHOD at various concentrations on human cells of different types of cancer was studied. These experiments were performed as described before, except that the M220 and HT-29 cell lines were cultured in DMEM medium and the MDA-MB-231 line was incubated in Leibowitz L-15 medium supplemented with 15% foetal bovine […]. […] Where the nature of the tumour process requires, application can be topical (use on the skin of active products for the treatment of melanoma and other cutaneous abnormalities of cancerous nature), which can be considered as cosmetic treatments when attempts are made to correct aesthetic defects.

[7] = Body weight of rats on cafeteria diet, no pre-treatment (Table 5); format: in vivo, rat
Source text: as §3

[8] = Levels of cholesterol, triglycerides and glucose in rats after oral treatment; format: in vivo, rat
Method: FIG. 13. The four bars, from left to right respectively, show the effect of treatments with vehicle (control, first bar), OHOD at 200 mg/kg (second bar), OHOD at 400 mg/kg (third bar) and OHOD at 600 mg/kg (fourth bar) on the cholesterol levels (group of four bars to the left), triglycerides (group of four bars in the middle) and glucose (group of four bars to the right). The treatments were oral in all cases and were maintained for 30 days. The values indicated are the average obtained in 6 animals per group.
FIG. 14. Effect of treatment with vehicle (control) or with the fatty acids of the invention (600 mg/kg) on the levels of cholesterol, triglycerides and glucose. The values indicated are the average of the values obtained in 6 animals. Each group of three bars represents treatment with a different fatty acid with the left bar corresponding to cholesterol, the middle bar to triglycerides and the right bar to glucose.
Metabolic diseases form a set of pathologies characterised by the accumulation or deficit of certain molecules (cholesterol, triglycerides, glucose, etc.) in the serum or tissues. These changes are the reflection of dysfunctions that are normally associated with errors in the activity of certain enzymes or in the control of these proteins. Among the most important metabolopathies are hypercholesterolemia (elevated levels of cholesterol), hypertriglyceridemia (elevated levels of triglycerides) and diabetes (elevated levels of glucose). These pathologies have high rates of incidence, morbidity and mortality, so that treatment is a first order necessity. […] For these experiments, the dose of fatty acid indicated (0, 200, 400 and 600 mg/kg) was supplied daily via the oral route. At the end of the treatment (30 days), blood was sampled from control and treated animals (n=6) and the levels of cholesterol, triglycerides and glucose were determined using standard colorimetric methods.
as §2

[9] = system: A549 cells; assay: Growth/viability of A549 lung cancer cells in culture (cell count); format: cell-based, human
Method: FIG. 3A. Cancer cells (A549) were treated with various concentrations of OHOD and MOD11 to determine whether the effect was dependent on the concentration. […] These cells were treated with different concentrations (0-400 μM) of OHOD and MOD11 and the number of cells was determined by flow cytometry.
FIG. 3B. Cancer cells (A549) were treated with compounds indicated on the horizontal axis for 48 hours at 150 μM. Then, the cells were counted and their number and percent of untreated (control) represented on the vertical axis.
Also, a series of α-derivatives of cis-monounsaturated fatty acids were used to investigate their effectiveness in cancer treatment. Two types of experiment were performed. Firstly, the dependency of the anti-tumour effect on concentration was investigated. To perform these experiments, human lung cancer cells (A549) were cultivated in RPMI medium, supplemented with 10% foetal bovine […], 10 mM Hepes (pH 7.4), 2 mM glutamine, 2 g/l bicarbonate, 1 g/l glucose, 100 units/ml penicillin, 0.1 mg/ml streptomycin, 0.25 μg/ml Amphotericin B, at 37° C. and in the presence of 5% CO2. In a first experimental series, these cells were treated with various concentrations (0-400 μM) of OHOD and MOD11 and the number of cells was determined by flow cytometry (FIG. 3A). […] In a second series, the anti-tumour effectiveness on A549 lung cancer cells was investigated at a single concentration (150 μM) and a time of 48 hours (FIG. 3B). […] Obviously, among the previous molecules, some lacked both modifications on the α-carbon and the double bond in cis configuration (EO, HDO, ODO) and had no therapeutic effect. […]

[10] = arterial pressure, hypertensive rats, 8-day treatment, 400 mg/kg oral
[11] = concentration that reduces the number of cells to half
[12] = cafeteria diet for 2 weeks, 300 mg/kg daily oral, no pre-treatment
[13] = rats, daily dose of 600 mg/kg oral, untreated controls = 100%

T1 sequence (P23219 24-599): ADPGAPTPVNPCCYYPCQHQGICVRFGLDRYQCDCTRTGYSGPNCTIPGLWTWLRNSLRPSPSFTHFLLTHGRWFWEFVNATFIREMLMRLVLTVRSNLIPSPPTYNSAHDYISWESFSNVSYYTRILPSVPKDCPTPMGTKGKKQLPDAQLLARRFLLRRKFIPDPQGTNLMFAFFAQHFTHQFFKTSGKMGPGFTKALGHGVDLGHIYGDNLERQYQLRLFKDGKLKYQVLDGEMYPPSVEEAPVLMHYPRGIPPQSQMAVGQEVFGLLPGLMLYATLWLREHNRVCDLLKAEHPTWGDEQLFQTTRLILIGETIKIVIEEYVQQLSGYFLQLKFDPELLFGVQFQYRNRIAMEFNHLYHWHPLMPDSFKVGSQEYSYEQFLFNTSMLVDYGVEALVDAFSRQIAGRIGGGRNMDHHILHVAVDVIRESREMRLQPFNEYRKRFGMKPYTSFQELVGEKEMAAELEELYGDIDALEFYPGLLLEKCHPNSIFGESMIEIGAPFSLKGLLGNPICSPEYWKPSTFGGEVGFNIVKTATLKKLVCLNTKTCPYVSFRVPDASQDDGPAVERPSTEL

Compound | inhibition of COX-1 activity (% of control) [2] | cellular concentration of COX-2 (% of control) [3] | tumour volume (prevention of tumour development) [1] | Final weight [4] | also measured
CCCCCCCC/C=C\CCCCCCC(F)C(=O)O (stereo not drawn) [FOD, α-Fluoro-cis-Δ9-octadecenoic] | more significant effect | more significant effect | more significant effect | 279 ± 13* g | –
CCCCCCCC/C=C\CCCCCCC(N)C(=O)O (stereo not drawn) [AOD, α-Amino-cis-Δ9-octadecenoic] | more significant effect | more significant effect | more significant effect | 272 ± 15* g | –
CCCCCCCC/C=C\CCCCCCCCC(O)C(=O)O (stereo not drawn) [OHEE, α-Hydroxy-cis-Δ11-eicosenoic] | more significant effect | more significant effect | more significant effect | 264 ± 11* g | –
CCCCCCCC/C=C\CCCCCCCCCCC(O)C(=O)O (stereo not drawn) [OHDE, α-Hydroxy-cis-Δ13-docosenoic] | more significant effect | more significant effect | more significant effect | 273 ± 15* g | –
CCCCCCCC/C=C\CCCCCCC(OP(=O)(OCC)OCC)C(=O)OC (stereo not drawn) [OMe-DEPOD] | – | – | – | – | PA (control 214 mmHg) [5, 10]: 175 mmHg; IC50 [6, 11]: 43 µM; Body weight (g) (control = 311 g) [7, 12]: 293 g; % control CHO (cholesterol) [8, 13]: 63 % control; % control TG (triglycerides) [8, 13]: 45 % control; IC50 [9, 11]: 66 µM
CCCCCCCC/C=C\CCCCCCC(OC(C)=O)C(=O)OC (stereo not drawn) [OMe- ACOD] | – | – | – | – | PA (control 214 mmHg) [5, 10]: 152 mmHg; IC50 [6, 11]: 214 µM; Body weight (g) (control = 311 g) [7, 12]: 296 g; % control CHO (cholesterol) [8, 13]: 86 % control; % control TG (triglycerides) [8, 13]: 74 % control; IC50 [9, 11]: 246 µM
CCCCCCCC/C=C\CCCCCCC(OP(=O)(OCC)OCC)C(=O)O (stereo not drawn) [DEPOD, α-diethyl-phosphatidyl-cis-Δ9-octadecenoic] | – | – | – | – | PA (control 214 mmHg) ([5]; rat, in vivo, po, 400 mg/kg): 147 mmHg; IC50 [6]: 99 µM; Body weight (g) (control = 311 g) ([7]; rat, in vivo): 301 g; % control CHO (cholesterol) ([8]; rat, in vivo, po, 600 mg/kg): 58 % control; % control TG (triglycerides) ([8]; rat, in vivo, po, 600 mg/kg): 43 % control; IC50 [9]: 57 µM

Further lines, with some results ahead:

inhibition of COX-1 activity (% of control) [2] | cellular concentration of COX-2 (% of control) [3] | Compound | tumour volume (prevention of tumour development) [1] | Final weight [4] | also measured
more significant effect | more significant effect | CCCCCCC/C=C\CCCCCCCC(S)C(=O)O (stereo not drawn) [SHOD, α-Mercapto-cis-Δ10-octadecenoic] | more significant effect | 269 ± 16* g | –
more significant effect | more significant effect | CCCCCCCC/C=C\CCCCCCC(C(=O)O)C(F)(F)F (stereo not drawn) [TFMOD, α-Trifluoromethyl-cis-Δ9-octadecenoic] | more significant effect | 278 ± 14* g | –
